Data as given in paper PMC3184254 (Nature Chemical Biology, 2011).

How the values were obtained:
[1] = system: DNA methylation on chr3 and chrX in MCF7 cells; assay: DNA methylation microarray analysis, MCF7; format: cell-based, human; conditions: 14 d at 70 or 320 nM
[2] = system: H3K9me2 levels in breast, prostate, colon carcinomas and normal fibroblast cells; assay: H3K9me2 in-cell western, tumor and normal cell lines; format: cell-based, human

COc1cc2c(NC3CCN(C(C)C)CC3)nc(C3CCCCC3)nc2cc1OCCCN1CCCC1 [UNC0638]
total levels of DNA methylation on chr3 and chrX [1]: not altered | IC50 ([2]; Homo sapiens, Fibroblast, read-out: potency in reducing H3K9me2 levels): 48 to 238 nM | reduction of H3K9me2 levels ([2]; at 250 nM, variety of cell lines): 60–80%
